One assay has as its target T1, JMJD2C (Homo sapiens, UniProt Q9H3R0).
T1 sequence (Q9H3R0 1-1056): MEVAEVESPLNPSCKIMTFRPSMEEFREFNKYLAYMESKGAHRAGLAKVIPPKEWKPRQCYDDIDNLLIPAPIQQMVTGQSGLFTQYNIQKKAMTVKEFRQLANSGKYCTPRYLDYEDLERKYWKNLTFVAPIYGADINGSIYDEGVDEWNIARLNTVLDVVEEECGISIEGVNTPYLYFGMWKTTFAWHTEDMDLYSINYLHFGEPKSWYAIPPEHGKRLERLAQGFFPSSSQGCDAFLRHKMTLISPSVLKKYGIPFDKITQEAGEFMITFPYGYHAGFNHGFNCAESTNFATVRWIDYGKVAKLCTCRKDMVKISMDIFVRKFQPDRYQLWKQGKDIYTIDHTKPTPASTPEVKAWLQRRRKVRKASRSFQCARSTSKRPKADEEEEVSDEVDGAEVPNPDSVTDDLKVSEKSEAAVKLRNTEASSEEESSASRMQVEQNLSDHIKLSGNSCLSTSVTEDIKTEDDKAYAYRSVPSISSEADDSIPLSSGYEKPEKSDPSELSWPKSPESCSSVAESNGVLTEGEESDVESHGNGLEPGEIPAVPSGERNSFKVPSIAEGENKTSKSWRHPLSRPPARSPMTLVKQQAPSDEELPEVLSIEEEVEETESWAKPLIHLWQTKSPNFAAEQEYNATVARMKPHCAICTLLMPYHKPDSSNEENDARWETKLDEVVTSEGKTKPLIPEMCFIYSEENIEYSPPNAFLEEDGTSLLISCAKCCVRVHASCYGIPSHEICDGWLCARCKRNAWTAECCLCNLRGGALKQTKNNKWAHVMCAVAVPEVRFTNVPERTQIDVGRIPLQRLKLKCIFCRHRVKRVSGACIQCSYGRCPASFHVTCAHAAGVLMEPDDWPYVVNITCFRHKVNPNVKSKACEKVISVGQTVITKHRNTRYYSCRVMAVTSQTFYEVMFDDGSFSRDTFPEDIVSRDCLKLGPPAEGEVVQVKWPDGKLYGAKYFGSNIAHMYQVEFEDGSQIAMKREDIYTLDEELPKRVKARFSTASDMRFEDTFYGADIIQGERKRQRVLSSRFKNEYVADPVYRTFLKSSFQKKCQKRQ
Put plainly: Histone demethylase inhibition assay, JMJD2C. The format is biochemical. To be noted: in vitro; compared with JMJD1A.

The target of a further assay is T2, JMJD2A (Homo sapiens, UniProt O75164).
T2 sequence (O75164 1-1064): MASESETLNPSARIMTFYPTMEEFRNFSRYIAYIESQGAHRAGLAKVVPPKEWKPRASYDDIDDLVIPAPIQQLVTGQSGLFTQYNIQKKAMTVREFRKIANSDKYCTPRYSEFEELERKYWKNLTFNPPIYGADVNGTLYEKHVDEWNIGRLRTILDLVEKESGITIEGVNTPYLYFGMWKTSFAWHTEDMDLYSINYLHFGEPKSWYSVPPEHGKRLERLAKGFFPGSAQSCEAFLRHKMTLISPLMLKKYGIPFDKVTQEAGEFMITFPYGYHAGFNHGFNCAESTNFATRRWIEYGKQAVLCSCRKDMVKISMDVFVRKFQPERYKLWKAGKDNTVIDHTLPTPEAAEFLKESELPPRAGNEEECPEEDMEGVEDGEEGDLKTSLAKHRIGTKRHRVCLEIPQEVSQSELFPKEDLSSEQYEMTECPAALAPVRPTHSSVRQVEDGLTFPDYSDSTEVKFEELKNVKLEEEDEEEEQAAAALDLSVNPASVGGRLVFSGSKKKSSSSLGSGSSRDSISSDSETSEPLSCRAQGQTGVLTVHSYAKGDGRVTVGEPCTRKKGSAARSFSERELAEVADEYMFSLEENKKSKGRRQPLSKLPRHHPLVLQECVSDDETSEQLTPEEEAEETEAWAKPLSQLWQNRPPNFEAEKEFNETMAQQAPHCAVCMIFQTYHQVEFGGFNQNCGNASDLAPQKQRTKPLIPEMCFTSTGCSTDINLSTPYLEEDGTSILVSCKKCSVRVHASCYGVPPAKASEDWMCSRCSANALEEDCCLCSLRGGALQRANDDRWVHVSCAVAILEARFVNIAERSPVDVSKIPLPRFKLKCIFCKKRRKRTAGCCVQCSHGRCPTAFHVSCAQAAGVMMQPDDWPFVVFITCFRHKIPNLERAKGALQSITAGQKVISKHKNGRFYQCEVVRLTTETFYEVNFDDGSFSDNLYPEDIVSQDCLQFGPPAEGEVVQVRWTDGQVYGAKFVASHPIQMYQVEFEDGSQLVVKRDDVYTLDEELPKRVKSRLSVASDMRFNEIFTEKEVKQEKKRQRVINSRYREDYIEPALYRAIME
Put plainly: Histone demethylase inhibition assay, JMJD2A. The format is biochemical. To be noted: in vitro; compared with JMJD1A.

The target of the next assay is JARID1A (Homo sapiens, UniProt P29375). Put plainly: Formaldehyde dehydrogenase-coupled assay, JARID1A. The format is biochemical. To be noted: in vitro; compared with JMJD1A.
Chain of JARID1A (P29375 whole entry): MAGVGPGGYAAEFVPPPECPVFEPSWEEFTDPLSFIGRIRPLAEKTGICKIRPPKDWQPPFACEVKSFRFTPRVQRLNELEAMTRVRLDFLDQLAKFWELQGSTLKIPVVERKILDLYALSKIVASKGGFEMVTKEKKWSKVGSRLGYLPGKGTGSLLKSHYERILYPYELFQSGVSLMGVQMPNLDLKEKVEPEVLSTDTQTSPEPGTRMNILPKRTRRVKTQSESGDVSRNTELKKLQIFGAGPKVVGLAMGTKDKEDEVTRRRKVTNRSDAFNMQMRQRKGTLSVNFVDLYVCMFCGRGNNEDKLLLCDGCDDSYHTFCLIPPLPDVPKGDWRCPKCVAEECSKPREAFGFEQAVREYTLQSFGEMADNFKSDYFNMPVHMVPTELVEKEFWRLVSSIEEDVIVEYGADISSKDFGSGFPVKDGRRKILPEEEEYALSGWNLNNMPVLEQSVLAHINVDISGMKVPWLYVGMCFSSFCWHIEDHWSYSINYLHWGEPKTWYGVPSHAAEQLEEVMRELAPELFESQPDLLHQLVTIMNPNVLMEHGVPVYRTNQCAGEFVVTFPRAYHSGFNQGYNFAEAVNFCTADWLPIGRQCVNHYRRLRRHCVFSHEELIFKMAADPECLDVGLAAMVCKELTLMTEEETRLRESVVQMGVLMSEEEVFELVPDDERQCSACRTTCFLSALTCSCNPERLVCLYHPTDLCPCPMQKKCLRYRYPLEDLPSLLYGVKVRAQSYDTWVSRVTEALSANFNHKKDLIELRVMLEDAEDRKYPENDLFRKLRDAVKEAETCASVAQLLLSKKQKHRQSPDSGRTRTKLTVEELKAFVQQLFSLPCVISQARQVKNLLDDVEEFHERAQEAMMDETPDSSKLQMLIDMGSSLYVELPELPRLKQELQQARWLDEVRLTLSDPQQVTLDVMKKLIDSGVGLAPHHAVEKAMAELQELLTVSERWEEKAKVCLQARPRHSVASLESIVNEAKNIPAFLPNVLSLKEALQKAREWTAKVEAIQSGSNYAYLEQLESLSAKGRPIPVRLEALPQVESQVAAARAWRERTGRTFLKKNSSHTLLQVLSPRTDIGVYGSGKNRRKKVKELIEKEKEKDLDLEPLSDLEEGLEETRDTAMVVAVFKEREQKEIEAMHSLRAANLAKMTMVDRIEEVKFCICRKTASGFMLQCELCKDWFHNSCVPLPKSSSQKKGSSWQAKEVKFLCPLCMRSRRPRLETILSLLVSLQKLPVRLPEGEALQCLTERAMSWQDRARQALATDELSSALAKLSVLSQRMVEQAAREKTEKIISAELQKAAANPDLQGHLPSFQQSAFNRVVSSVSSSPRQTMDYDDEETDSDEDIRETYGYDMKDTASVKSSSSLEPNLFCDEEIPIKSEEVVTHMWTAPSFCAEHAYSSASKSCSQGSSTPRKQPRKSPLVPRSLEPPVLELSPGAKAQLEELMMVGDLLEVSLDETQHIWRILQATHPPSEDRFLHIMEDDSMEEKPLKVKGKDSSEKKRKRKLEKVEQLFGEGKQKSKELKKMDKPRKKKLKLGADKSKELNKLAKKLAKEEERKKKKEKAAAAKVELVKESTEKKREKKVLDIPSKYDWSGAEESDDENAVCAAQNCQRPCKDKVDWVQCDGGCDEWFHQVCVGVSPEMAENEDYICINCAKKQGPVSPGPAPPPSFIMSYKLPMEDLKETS
Assay [1] has as its system BE(2)-C cells. The assay can be described thus: Cell migration (wound healing) assay with Ibidi Culture Inserts. The format is cell-based, human. To be noted: 67μM DMOG vs vehicle control. How it is done:
Ibidi Culture Inserts (DKSH, Sydney, Australia) were placed in the center of 6 well plates. BE(2)-C cells were added into the wells outside the inserts. Sixteen hours later, the inserts were removed to create “wounds”. Photos of the “wounds” were taken under microscope, and the areas of the remaining “wounds” were measured and analyzed with Image J software (National Institutes of Health, USA).

Assay [2] relates to BE(2)-C cells. The assay can be described thus: Cell proliferation, Alamar blue assay, BE(2)-C. To be noted: range of doses of DMOG, 72 hours. The format is cell-based, human. How it is done:
Cell proliferation was examined with Alamar blue assays. Briefly, cells were plated into 96 well plates, transfected with various siRNAs or treated with different dosages of DMOG. Seventy-two hours later, cells were incubated with Alamar blue (Invitrogen) for 5 hours, and plates were then read on a micro-plate reader at 570/595 nm. Results were calculated according to the optical density absorbance units and expressed as percentage changes in cell numbers.
For orientation: Resazurin is reduced to fluorescent resorufin, in cell work by metabolically active cells.

Assay [3] concerns BE(2)-C cells. Put plainly: Matrigel cell invasion assay. In kind it is cell-based, human. To be noted: 67μM DMOG for 20 hours, invasion quantified 22 hours later, vs vehicle control. The procedure: BE(2)-C cells were transfected with siRNA or treated with JMJD1A inhibitors for 20 hours, and then detached and added onto BD Falcon Cell Culture Inserts coated with Matrigel inside BD BioCoat Matrigel Invasion Chambers (Becton Dickinson, Bedford, MA, USA). Cells invaded through Matrigel to the bottom side of the inserts were stained with toluidine blue, photographed under microscope and quantified.

For another assay, the system named is MALAT1. Put plainly: Real-time RT-PCR of MALAT1 RNA expression in BE(2)-C cells. The format is cell-based, human. To be noted: 67μM DMOG, 48 hours, vs vehicle control. The text has this: Gene expression in tumor cells was examined by quantitative real-time RT-PCR as described previously. For the analysis of protein expression by immunoblot, cells were lysed, protein extracted and separated by gel electrophoresis. After western transfer, membranes were probed with mouse anti-N-Myc antibody (1:1000) (Santa Cruz Biotech, CA, USA) or rabbit anti-JMJD1A antibody (1:500) (Abcam, Cambridge, MA, USA), followed by horseradish peroxidase-conjugated anti-mouse (1:10000) or anti-rabbit (1:20000) antiserum (Santa Cruz Biotech). Protein bands were visualized with SuperSignal (Pierce, Rockford, IL, USA). The membranes were lastly re-probed with an anti-actin antibody (Sigma, St Louis, MO, USA) as loading controls.
(In qPCR the cycle at which signal appears reflects the starting amount.)

`O=C(O)CNC(=O)C(=O)O` [NOG, N-oxalylglycine]: at JMJD2C, the “Inhibition of other histone demethylases (JMJD2C), concentration in words” value was “much higher concentrations”. For the same molecule, the “Inhibition of other histone demethylases (JMJD2A), concentration in words” value at JMJD2A is on record as “much higher concentrations”. Also, on JARID1A, the “Inhibition of other histone demethylases (JARID1A), concentration in words” value was “much higher concentrations”.

For `COC(=O)CNC(=O)C(=O)OC` [DMOG], the “Increase in area of remaining wounds” value in the assay on BE(2)-C cells [1] (32 hours after removal of inserts) is on record as “approximately 47%”; in the assay with BE(2)-C cells [1] (48 hours after removal of inserts), about 895%. Further, the “Cell proliferation (viable cells, Alamar blue)” value with BE(2)-C cells [2] was “no effect”. Also, the “Reduction of cell invasion through Matrigel” value with BE(2)-C cells [3] was “approximately 52%”. The MALAT1 gene expression entry with MALAT1 is given as “reduced”.
